From patent US20150173371A1 (Dow AgroSciences LLC, priority 2013, published 2015)
Values joined by “and” are separate entries in the source; they are usually repeats but may differ in a detail not shown here. Identical values can stand only once. Like-named read-outs stand apart in the source and are kept apart here.

What was measured:
[1] = tested on: Ipomoea quamoclit (cypress vine morningglory, IPOQU); details: 7DAA, field trial, 1065 g ae/ha alone
Protocol: (§1) Field trials were conducted under normal field conditions in multiple states in the United States, including but not limited to Alabama, Mississipi, South Carolina and Tennessee; and in Brazil, including but not limited to the states of Goias, Mato Grosso, Parana, Rio Grande do Sul, and Sao Paulo. Trials were established as RCB (randomized complete block) design, with 3-4 replicates per treatment, and plot sizes varying from 2-3 meters (m) wide by 4-8 m long. Treatments were applied with small plot backpack sprayers, using pressurized carbon dioxide (CO2) as propellant. Pressure varied from 22-40 PSI, with spray tips typically of a Flat Fan type applying water diluent at 150 L/ha. Boom sizes varied from 2-3 m in width. Treatments were applied to soybean, cotton or fallow crop land. Weed sizes varied, but all treatments were applied as post-emergence treatments to weeds from 2 leaf to 2 tiller growth stages varying from 2-15 inches (in) in height. No additional adjuvant was mixed with the treatments applied in the field
(§2) The treated plots and control plots were rated blind at various intervals after application.
(§3) Colby's equation was used to determine the herbicidal effects expected from the mixtures (Colby, S. R. Calculation of the synergistic and antagonistic response of herbicide combinations. Weeds 1967 15, 20-22). A t-test (alpha=0.05) between Colby predictions and observed combinations was used to test for significant differences indicating synergy or antagonism.
(§4) The following equation was used to calculate the expected activity of mixtures containing two active ingredients, A and B:
(§5) Expected=A+B−(A×B/100) • A=observed efficacy of active ingredient A at the same concentration as used in the mixture; • B=observed efficacy of active ingredient B at the same concentration as used in the mixture.

[2] = tested on: Conyza bonariensis (hairy fleabane, ERIBO); details: field trial
Protocol: as §1, §2, §3, §4, §5

[3] = tested on: Conyza canadensis (horseweed, ERICA); details: field trial
Protocol: as §1, §2, §3, §4, §5

[4] = tested on: Commelina benghalensis (hairy wandering Jew, COMBE); assay: Field trial, % visual weed control; assay type: in vivo; details: 780 g ae/ha alone
Description: (§6) Boom sizes varied from 2-3 m in width.

[5] = tested on: Ipomoea species (morningglory, IPOSS); assay: Field trial, % visual weed control; assay type: in vivo; details: 8DAA, 800 g ae/ha alone
Description: as §6

[6] = tested on: Euphorbia hirta (garden spurge, EPHHI); assay: Field trial, % visual weed control; assay type: in vivo
Description: as §6

[7] = tested on: Sesbania exaltata (hemp sesbania, SEBEX); assay: Field trial, % visual weed control; assay type: in vivo; details: 8DAA, 800 g ae/ha alone
Description: as §6

[8] = tested on: Amaranthus palmeri (Palmer pigweed, AMAPA); assay: Field trial, % visual weed control; assay type: in vivo
Description: as §6

[9] = tested on: Spermacoce latifolia (broadleaf buttonweed, BOILF); assay: Field trial, % visual weed control; assay type: in vivo
Description: as §6

[10] = tested on: Brachiaria decumbens (Surinam grass, BRADC); assay: Field trial, % visual weed control; assay type: in vivo; details: 12DAA, 684 g ae/ha alone
Description: as §6

[11] = tested on: Jacquemontia tamnifolia (smallflower morningglory, IAQTA); assay: Field trial, % visual weed control; assay type: in vivo; details: 7DAA, 1065 g ae/ha alone
Description: as §6

[12] = tested on: Tridax procumbens L (tridax daisy, TRQPR); assay: Field trial, % visual weed control; assay type: in vivo; details: 16DAA, 780 g ae/ha alone
Description: as §6

[13] = tested on: Raphanus raphanistrim (wild radish, RAPRA); assay: Field trial, % visual weed control; assay type: in vivo; details: 6DAA, 780 g ae/ha alone
Description: as §6

[14] = tested on: Ipomoea grandifolia (Corda-de-viola, IAQGR); assay: Field trial, % visual weed control; assay type: in vivo; details: 17DAA, 780 g ae/ha alone
Description: as §6

[15] = tested on: Euphorbia heterophylla (wild poinsettia, EPHHL); assay: Field trial, % visual weed control; assay type: in vivo; details: 28DAA, 585 g ae/ha alone
Description: as §6

[16] = tested on: Glycine max (soybean, glyphosate tolerant, GLXMA); assay: Field trial, % visual weed control; assay type: in vivo
Description: as §6

[17] = tested on: Elymus repens (quackgrass, AGRRE); assay: Greenhouse trial, % visual weed control; assay type: in vivo; details: 14DAA, 200 g ae/ha alone
Protocol: (§7) Greenhouse trials were conducted under controlled environment greenhouse conditions, with plants grown in pots with Metromix soil and bottom watered. Treatments were applied with 3 replicates per treatment, using a track sprayer with 2 flat fan nozzles at 40 pounds per square inch (PSI). Water was used as the diluent at 140 liters per hectare (L/ha), with weeds being 2-4 leaf stage and approximately 3 inches in height at treatment.

[18] = tested on: Chenopodium album (common lambsquarter, CHEAL); assay: Greenhouse trial, % visual weed control; assay type: in vivo; details: 14DAA
Protocol: as §7

[19] = tested on: Ambrosia artemisiifolia (common ragweed, AMBEL); assay: Greenhouse trial, % visual weed control; assay type: in vivo; details: 14DAA, 100 g ae/ha alone
Protocol: as §7

[20] = tested on: Abutilon theophrasti (velvetleaf, ABUTH); assay: Greenhouse trial, % visual weed control; assay type: in vivo; details: 14DAA
Protocol: as §7

O=C(O)COc1ccc(Cl)cc1Cl [2,4-D-Choline, 2-hydroxy-N,N,N-trimethylethanaminium 2-(2,4-dichlorophenoxyl)acetate]
Mean % Weed Control [1]: 81.3%
Mean % Weed Control ([2]; 6DAA, 720 g ae/ha alone): 5.0%
Mean % Weed Control ([2]; 6DAA, 1080 g ae/ha alone): 5.0%
Mean % Weed Control ([2]; 7DAA, 780 g ae/ha alone): 5.0% and 12.5%
Mean % Weed Control ([2]; 10DAA, 780 g ae/ha alone): 46.3%
Mean % Weed Control ([2]; 20DAA, 780 g ae/ha alone): 34.5%
Mean % Weed Control ([2]; 21DAA, 780 g ae/ha alone): 38.8%
Mean % Weed Control ([2]; 31DAA, 780 g ae/ha alone): 53.8%
Mean % Weed Control ([2]; 36DAA, 780 g ae/ha alone): 27.5% and 17.5%
Mean % Weed Control ([3]; 10DAA, 360 g ae/ha alone): 11.7%
Mean % Weed Control ([3]; 10DAA, 720 g ae/ha alone): 15%
Mean % Weed Control ([3]; 14DAA, 800 g ae/ha alone): 58.8%
Mean % Weed Control ([3]; 15DAA, 360 g ae/ha alone): 16.7%
Mean % Weed Control ([3]; 15DAA, 720 g ae/ha alone): 21.7%
Mean % Weed Control ([3]; 21DAA, 800 g ae/ha alone): 66.3%
Mean % Weed Control ([3]; 28DAA, 800 g ae/ha alone): 50.0%
Mean % Weed Control ([3]; 31DAA, 360 g ae/ha alone): 25%
Mean % Weed Control ([3]; 31DAA, 720 g ae/ha alone): 40%
Mean % Weed Control ([4]; 12DAA): 70.0%
Mean % Weed Control ([4]; 15DAA): 68.8% and 66.3%
Mean % Weed Control ([4]; 18DAA): 43.8%
Mean % Weed Control ([4]; 27DAA): 66.3%
Mean % Weed Control ([4]; 28DAA): 67.5%
Mean % Weed Control ([4]; 35DAA): 70.0%
Mean % Weed Control [5]: 80.0%
Mean % Weed Control ([6]; 7DAA, 780 g ae/ha alone): 13.8%
Mean % Weed Control ([6]; 18DAA, 780 g ae/ha alone): 36.3%
Mean % Weed Control ([6]; 21DAA, 780 g ae/ha alone): 0.0%
Mean % Weed Control ([6]; 24DAA, 480 g ae/ha alone): 21.7%
Mean % Weed Control [7]: 32.5%
Mean % Weed Control ([8]; 7DAA, 800 g ae/ha alone): 47.5%
Mean % Weed Control ([8]; 13DAA, 1065 g ae/ha alone): 45.0%
Mean % Weed Control ([8]; 21DAA, 1065 g ae/ha alone): 38.8%
Mean % Weed Control ([9]; 18DAA, 780 g ae/ha alone): 37.5%
Mean % Weed Control ([9]; 21DAA, 780 g ae/ha alone): 63.8%
Mean % Weed Control ([9]; 24DAA, 480 g ae/ha alone): 30.0%
Mean % Weed Control ([9]; 27DAA, 780 g ae/ha alone): 67.5%
Mean % Weed Control ([9]; 28DAA, 780 g ae/ha alone): 68.8%
Mean % Weed Control [10]: 7.5%
Mean % Weed Control [11]: 80.0%
Mean % Weed Control [12]: 12.5%
Mean % Weed Control [13]: 80.0%
Mean % Weed Control [14]: 98.0%
Mean % Weed Control [15]: 65.0%
Mean % Weed Control ([16]; 7DAA, 960 g ae/ha alone): 50.0%
Mean % Weed Control ([16]; 16DAA, 456 g ae/ha alone): 48.8%
Mean % Weed Control ([16]; 28DAA, 480 g ae/ha alone): 58.8%
Mean % Weed Control ([16]; 28DAA, 960 g ae/ha alone): 67.5%
Mean % Weed Control ([16]; 30DAA, 456 g ae/ha alone): 60.0%
Mean % Weed Control [17]: 0.0%
Mean % Weed Control ([18]; 100 g ae/ha alone): 5.0%
Mean % Weed Control ([18]; 200 g ae/ha alone): 61.7%
Mean % Weed Control ([18]; 400 g ae/ha alone): 75.0%
Mean % Weed Control [19]: 25.0%
Mean % Weed Control ([20]; 100 g ae/ha alone): 28.3%
Mean % Weed Control ([20]; 200 g ae/ha alone): 46.7%
Mean % Weed Control ([20]; 400 g ae/ha alone): 73.3%
Mean % Weed Control ([20]; 800 g ae/ha alone): 88.3%
